Laboratory results taken from the supplement of paper PMC10307832.

Columns and labels:
Doxorubicin + Dasatinib = compound: COc1cccc2c1C(=O)c1c(O)c3c(c(O)c1C2=O)C[C@@](O)(C(=O)CO)C[C@@H]3O[C@H]1C[C@H](N)[C@H](O)[C@H](C)O1 [Doxorubicin] + Cc1nc(Nc2ncc(C(=O)Nc3c(C)cccc3Cl)s2)cc(N2CCN(CCO)CC2)n1 [Dasatinib] (partner 0.075 µM); assay: relative viability (nuclei count vs DMSO), 5 days (fraction); higher = more cells survive
How it was run: (§1)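 Each reported value is a median over duplicate plates. It expresses relative viability: treated-well nuclei count divided by vehicle-well nuclei count. Lung cancer cell lines in 1536-well plates were dosed by pin tool a day after seeding, alone with one drug or with a fixed anchor-drug dose plus five library-drug doses (not always all listed) in √10 steps, and nuclei were counted after 5 days.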

BAY61-3606 + Trametinib = compound: COC1=C(C=C(C=C1)C2=CC3=NC=CN3C(=N2)NC4=C(C=CC=N4)C(=O)N)OC [BAY61-3606] + CC(=O)Nc1cccc(-n2c(=O)n(C3CC3)c(=O)c3c(Nc4ccc(I)cc4F)n(C)c(=O)c(C)c32)c1 [Trametinib] (partner 0.02 µM); assay: as above
How it was run: as §1

Cell Line | relative viability (Doxorubicin + Dasatinib; first compound 0.001 µM) | relative viability (Doxorubicin + Dasatinib; first compound 0.003162 µM) | relative viability (Doxorubicin + Dasatinib; first compound 0.01 µM) | relative viability (Doxorubicin + Dasatinib; first compound 0.03162 µM) | relative viability (Doxorubicin + Dasatinib; first compound 0.1 µM) | relative viability (BAY61-3606 + Trametinib; first compound 0.02 µM) | relative viability (BAY61-3606 + Trametinib; first compound 0.06325 µM) | relative viability (BAY61-3606 + Trametinib; first compound 0.2 µM) | relative viability (BAY61-3606 + Trametinib; first compound 0.6325 µM) | relative viability (BAY61-3606 + Trametinib; first compound 2 µM)
201T | 0.537 | 0.636 | 0.561 | 0.583 | 0.546 | 0.728 | 0.712 | 0.771 | 0.753 | 0.735
NCI-H2228 | 0.45 | 0.598 | 0.483 | 0.229 | 0.112 | 0.523 | 0.439 | 0.476 | 0.531 | 0.365
CAL-12T | 0.302 | 0.461 | 0.346 | 0.195 | 0.118 | 0.359 | 0.372 | 0.346 | 0.347 | 0.229
NCI-H661 | 0.829 | 0.846 | 0.786 | 0.412 | 0.316 | 0.638 | 0.585 | 0.551 | 0.633 | 0.541
NCI-H1792 | – | 0.901 | 0.741 | 0.769 | 0.706 | 0.574 | 0.361 | 0.353 | 0.412 | 0.396
NCI-H2085 | 0.286 | 0.278 | 0.224 | 0.224 | 0.241 | 0.666 | 0.45 | 0.511 | 0.59 | 0.42
NCI-H2023 | 0.672 | 0.588 | 0.431 | 0.173 | 0.0859 | 0.571 | 0.64 | 0.518 | 0.587 | 0.413
